{"source": "paper PMC7462985", "about": "“Inhibitors of BRAF dimers using an allosteric site” (Nature Communications, 2020)", "key": {"[1]": {"biological_target": "T1, BRAF^WT (Homo sapiens, UniProt P15056)", "T1 construct": "purchased Invitrogen (SelectScreen service)", "assay": "SelectScreen Z'-LYTE kinase activity assay", "type": "biochemical", "settings": "100 μM ATP"}, "[2]": {"biological_target": "T2, PDFGRα (Homo sapiens, UniProt P16234)", "T2 construct": "purchased Invitrogen (SelectScreen service)", "T2 sequence (P16234 24-1089)": "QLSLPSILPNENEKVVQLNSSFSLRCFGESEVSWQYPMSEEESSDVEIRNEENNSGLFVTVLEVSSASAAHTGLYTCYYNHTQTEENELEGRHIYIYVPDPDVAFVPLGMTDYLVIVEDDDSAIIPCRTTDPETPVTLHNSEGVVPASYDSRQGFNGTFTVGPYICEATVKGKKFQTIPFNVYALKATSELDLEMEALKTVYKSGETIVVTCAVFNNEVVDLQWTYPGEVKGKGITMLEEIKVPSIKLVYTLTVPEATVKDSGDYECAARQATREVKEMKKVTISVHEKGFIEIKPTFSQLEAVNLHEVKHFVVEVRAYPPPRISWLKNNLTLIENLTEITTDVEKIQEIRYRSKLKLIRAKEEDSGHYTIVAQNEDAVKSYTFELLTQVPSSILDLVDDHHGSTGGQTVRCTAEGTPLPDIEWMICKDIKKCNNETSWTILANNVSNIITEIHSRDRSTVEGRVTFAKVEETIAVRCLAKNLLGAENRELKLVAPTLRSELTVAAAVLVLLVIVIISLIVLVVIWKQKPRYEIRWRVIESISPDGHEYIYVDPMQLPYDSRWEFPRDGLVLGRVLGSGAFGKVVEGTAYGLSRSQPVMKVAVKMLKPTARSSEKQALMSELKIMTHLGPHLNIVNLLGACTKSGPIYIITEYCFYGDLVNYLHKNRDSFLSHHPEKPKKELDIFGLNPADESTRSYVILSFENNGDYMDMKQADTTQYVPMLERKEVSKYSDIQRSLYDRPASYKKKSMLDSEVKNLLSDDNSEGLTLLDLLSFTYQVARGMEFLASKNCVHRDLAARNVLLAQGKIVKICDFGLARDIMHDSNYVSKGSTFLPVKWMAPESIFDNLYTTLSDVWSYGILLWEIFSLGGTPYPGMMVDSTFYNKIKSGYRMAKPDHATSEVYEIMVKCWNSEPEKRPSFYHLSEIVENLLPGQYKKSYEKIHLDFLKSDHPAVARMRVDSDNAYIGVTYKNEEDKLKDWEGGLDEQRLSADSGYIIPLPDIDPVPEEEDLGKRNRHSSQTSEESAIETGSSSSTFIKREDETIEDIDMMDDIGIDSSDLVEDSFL", "assay": "SelectScreen kinase activity assay", "type": "biochemical", "settings": "100 μM ATP"}, "[3]": {"biological_target": "BRAF^V600E monomers in A375 cells (Homo sapiens, UniProt P15056, V600E)", "sequence (P15056 whole entry V600E)": "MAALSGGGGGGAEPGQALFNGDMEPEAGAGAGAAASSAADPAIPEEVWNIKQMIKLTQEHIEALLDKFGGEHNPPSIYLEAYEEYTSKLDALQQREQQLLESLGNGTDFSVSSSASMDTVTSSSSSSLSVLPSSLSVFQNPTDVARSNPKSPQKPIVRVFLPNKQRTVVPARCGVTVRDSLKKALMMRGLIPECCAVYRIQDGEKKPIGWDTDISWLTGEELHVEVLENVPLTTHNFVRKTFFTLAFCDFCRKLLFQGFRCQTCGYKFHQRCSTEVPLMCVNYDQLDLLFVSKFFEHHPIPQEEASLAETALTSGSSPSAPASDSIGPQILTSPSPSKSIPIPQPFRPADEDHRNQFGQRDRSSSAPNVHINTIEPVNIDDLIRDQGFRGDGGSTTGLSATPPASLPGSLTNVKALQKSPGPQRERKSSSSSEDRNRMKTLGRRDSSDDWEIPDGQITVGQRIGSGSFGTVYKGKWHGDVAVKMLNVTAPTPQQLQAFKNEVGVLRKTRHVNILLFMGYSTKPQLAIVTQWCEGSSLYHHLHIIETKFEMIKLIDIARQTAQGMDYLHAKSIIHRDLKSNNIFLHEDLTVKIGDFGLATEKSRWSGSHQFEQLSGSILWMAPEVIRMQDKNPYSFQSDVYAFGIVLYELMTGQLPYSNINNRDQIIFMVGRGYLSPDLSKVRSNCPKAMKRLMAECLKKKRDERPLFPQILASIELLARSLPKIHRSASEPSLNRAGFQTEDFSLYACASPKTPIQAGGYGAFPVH", "assay": "Cellular Thermal Shift Assay (CETSA)", "type": "cell-based", "settings": "20 μΜ compound, versus DMSO"}, "[4]": {"biological_target": "T3, ABL1(T315I)-phosphorylated (Homo sapiens, UniProt P00519, T315I)", "T3 construct": "purchased Eurofins/DiscoverX KINOMEscan (scanEDGE panel)", "assay": "KINOMEscan scanEDGE binding", "settings": "KinomeEDGE scan, compound at 1 μΜ"}, "[5]": {"biological_target": "T4, ABL1-phosphorylated (Homo sapiens, UniProt P00519)", "T4 construct": "purchased Eurofins/DiscoverX KINOMEscan (scanEDGE panel)", "assay": "KINOMEscan scanEDGE binding", "settings": "KinomeEDGE scan, compound at 1 μΜ"}, "[6]": {"biological_target": "T5, ACVR1B (Homo sapiens, UniProt P36896)", "T5 construct": "purchased Eurofins/DiscoverX KINOMEscan (scanEDGE panel)", "assay": "KINOMEscan scanEDGE binding", "settings": "KinomeEDGE scan, compound at 1 μΜ"}, "[7]": {"test_system": "EPHA", "assay": "KINOMEscan scanEDGE binding", "set-up": "species or system human", "settings": "KinomeEDGE scan, compound at 1 μΜ"}, "[8]": {"biological_target": "T6, ROCK2 (Homo sapiens, UniProt O75116)", "T6 construct": "purchased Eurofins/DiscoverX KINOMEscan (scanEDGE panel)", "assay": "KINOMEscan scanEDGE binding", "settings": "KinomeEDGE scan, compound at 1 μΜ"}, "[9]": {"biological_target": "T7, FGFR1 (Homo sapiens, UniProt P11362)", "T7 sequence (P11362 22-822)": "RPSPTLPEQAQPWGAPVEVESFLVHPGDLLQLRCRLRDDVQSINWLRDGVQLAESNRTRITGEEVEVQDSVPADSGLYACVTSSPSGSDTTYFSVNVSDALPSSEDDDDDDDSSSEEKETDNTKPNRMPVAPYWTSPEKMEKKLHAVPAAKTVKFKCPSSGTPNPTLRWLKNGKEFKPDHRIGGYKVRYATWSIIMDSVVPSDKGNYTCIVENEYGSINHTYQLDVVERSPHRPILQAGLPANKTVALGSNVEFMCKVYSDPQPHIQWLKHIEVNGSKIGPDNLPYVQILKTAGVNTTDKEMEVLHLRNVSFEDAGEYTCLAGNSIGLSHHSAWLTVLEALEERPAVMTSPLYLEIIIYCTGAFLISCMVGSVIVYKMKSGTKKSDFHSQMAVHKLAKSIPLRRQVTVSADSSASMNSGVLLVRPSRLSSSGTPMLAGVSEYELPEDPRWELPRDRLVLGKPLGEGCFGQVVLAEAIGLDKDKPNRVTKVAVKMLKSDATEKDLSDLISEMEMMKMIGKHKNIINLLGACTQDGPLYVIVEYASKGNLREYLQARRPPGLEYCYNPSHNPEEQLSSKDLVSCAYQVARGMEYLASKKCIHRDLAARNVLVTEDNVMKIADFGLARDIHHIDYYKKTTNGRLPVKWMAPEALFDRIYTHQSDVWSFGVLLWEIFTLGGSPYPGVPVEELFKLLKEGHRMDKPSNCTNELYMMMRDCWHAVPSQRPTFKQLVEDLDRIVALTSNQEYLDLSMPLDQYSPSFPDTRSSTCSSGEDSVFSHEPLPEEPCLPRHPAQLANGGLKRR", "assay": "SelectScreen kinase activity assay", "type": "biochemical", "set-up": "purchased Invitrogen (SelectScreen service)"}, "[10]": {"biological_target": "T8, FLT3 (Homo sapiens, UniProt P36888)", "T8 sequence (P36888 27-993)": "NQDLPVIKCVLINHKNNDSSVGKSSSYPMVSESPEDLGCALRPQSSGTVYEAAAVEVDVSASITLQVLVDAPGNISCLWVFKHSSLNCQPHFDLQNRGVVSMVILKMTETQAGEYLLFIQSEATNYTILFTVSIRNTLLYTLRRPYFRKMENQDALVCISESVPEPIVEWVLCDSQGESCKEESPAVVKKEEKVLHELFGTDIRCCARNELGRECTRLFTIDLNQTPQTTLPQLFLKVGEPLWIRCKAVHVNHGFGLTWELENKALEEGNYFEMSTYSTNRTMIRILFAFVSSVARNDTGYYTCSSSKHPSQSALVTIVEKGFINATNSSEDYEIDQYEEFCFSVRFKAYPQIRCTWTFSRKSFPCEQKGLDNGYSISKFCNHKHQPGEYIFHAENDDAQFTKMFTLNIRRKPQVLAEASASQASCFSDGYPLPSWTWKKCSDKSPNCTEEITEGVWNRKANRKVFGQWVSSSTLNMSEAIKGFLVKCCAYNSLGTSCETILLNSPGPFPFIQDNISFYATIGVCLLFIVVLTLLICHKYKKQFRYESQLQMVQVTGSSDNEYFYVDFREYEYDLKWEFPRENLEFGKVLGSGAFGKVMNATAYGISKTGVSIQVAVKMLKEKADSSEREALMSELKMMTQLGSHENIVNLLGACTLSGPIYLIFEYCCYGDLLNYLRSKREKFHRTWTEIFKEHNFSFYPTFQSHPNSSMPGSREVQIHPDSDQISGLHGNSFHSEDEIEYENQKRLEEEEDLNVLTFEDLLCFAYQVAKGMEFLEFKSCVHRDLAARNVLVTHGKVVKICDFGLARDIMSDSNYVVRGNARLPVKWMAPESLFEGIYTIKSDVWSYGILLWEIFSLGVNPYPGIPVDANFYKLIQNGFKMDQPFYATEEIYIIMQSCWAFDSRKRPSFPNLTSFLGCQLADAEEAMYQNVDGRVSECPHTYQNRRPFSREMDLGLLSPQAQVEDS", "assay": "SelectScreen kinase activity assay", "type": "biochemical", "set-up": "purchased Invitrogen (SelectScreen service)", "settings": "PHI1 versus Ponatinib"}, "[11]": {"biological_target": "KIT (Homo sapiens, UniProt P10721)", "sequence (P10721 26-976)": "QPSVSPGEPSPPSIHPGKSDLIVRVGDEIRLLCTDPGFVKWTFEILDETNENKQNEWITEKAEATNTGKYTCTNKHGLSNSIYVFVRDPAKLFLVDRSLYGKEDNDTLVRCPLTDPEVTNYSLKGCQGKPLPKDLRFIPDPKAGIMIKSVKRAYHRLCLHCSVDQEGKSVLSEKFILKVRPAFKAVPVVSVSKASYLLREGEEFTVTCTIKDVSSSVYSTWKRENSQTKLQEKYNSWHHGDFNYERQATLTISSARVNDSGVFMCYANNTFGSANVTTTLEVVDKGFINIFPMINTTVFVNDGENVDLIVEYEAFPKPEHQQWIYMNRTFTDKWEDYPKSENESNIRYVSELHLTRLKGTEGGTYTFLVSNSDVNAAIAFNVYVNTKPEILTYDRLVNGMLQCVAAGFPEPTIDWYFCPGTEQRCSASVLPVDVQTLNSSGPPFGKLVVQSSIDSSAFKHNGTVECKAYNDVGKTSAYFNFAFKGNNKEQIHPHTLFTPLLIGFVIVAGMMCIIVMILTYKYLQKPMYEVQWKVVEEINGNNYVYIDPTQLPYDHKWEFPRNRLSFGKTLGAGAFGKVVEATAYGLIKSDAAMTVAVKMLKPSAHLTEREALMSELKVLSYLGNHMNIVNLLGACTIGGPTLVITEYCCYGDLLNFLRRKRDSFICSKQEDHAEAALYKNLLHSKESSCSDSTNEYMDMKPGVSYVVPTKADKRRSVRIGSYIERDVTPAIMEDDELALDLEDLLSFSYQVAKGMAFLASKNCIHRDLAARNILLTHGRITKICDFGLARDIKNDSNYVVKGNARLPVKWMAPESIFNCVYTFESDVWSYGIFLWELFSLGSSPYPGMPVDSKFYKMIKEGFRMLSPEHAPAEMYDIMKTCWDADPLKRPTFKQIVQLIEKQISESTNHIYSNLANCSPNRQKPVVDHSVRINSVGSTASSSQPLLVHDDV", "assay": "SelectScreen kinase activity assay", "type": "biochemical", "set-up": "purchased Invitrogen (SelectScreen service)", "settings": "100 μM ATP"}, "[12]": {"biological_target": "T9, CRAF (Homo sapiens, UniProt P04049)", "T9 construct": "purchased Millipore #17-360", "assay": "CRAF kinase activity assay (western blot)", "type": "biochemical"}, "[13]": {"test_system": "melanoma cells dependent on BRAF^V600E, p61BRAF^V600E, and RAS^MUT/BRAF^WT", "assay": "3D culture colony formation", "type": "cell-based", "settings": "0.1-10 μM, 5th day of culture, compared to Vemurafenib", "protocol": "3D laminin-rich extracellular matrix cultures were prepared by trypsinization of melanoma cells from tissue culture plastic, seeding of single cells on top of a thin layer of Growth Factor-Reduced Matrigel (BD Biosciences, Franklin Lakes, NJ), and the addition of a medium containing 5% Matrigel. The cells were seeded at the density of 40,000 cells per cm^2. All 3D cell cultures were performed in DMEM supplemented with 5 μg/mL bovine insulin with Zinc (Gibco), 15 μg/mL bovine pituitary extract (Gibco), 0.5 ng/mL epidermal growth factor (Sigma-Aldrich, St. Louis, MO) and 2% fetal bovine serum. 3D cultures were maintained with media and/or drug-treatment changes every second day, and photographs were taken at the end of the 5th day. The size of single cell colonies was estimated with ImageJ (Version 1.51)."}, "[14]": {"biological_target": "T10, AXL (Homo sapiens, UniProt P30530)", "T10 construct": "purchased Eurofins/DiscoverX KINOMEscan (scanEDGE panel)", "assay": "KINOMEscan scanEDGE binding", "settings": "KinomeEDGE scan, compound at 1 μΜ"}, "[15]": {"biological_target": "T11, CDK7 (Homo sapiens, UniProt P50613)", "T11 construct": "purchased Eurofins/DiscoverX KINOMEscan (scanEDGE panel)", "assay": "KINOMEscan scanEDGE binding", "settings": "KinomeEDGE scan, compound at 1 μΜ"}, "[16]": {"biological_target": "T12, CDK9 (Homo sapiens, UniProt P50750)", "T12 construct": "purchased Eurofins/DiscoverX KINOMEscan (scanEDGE panel)", "assay": "KINOMEscan scanEDGE binding", "settings": "KinomeEDGE scan, compound at 1 μΜ"}, "[17]": {"biological_target": "T13, EGFR (Homo sapiens, UniProt P00533)", "T13 construct": "purchased Eurofins/DiscoverX KINOMEscan (scanEDGE panel)", "assay": "KINOMEscan scanEDGE binding", "settings": "KinomeEDGE scan, compound at 1 μΜ"}, "[18]": {"biological_target": "T14, EGFR(L858R) (Homo sapiens, UniProt P00533, L858R)", "T14 construct": "purchased Eurofins/DiscoverX KINOMEscan (scanEDGE panel)", "assay": "KINOMEscan scanEDGE binding", "settings": "KinomeEDGE scan, compound at 1 μΜ"}, "[19]": {"biological_target": "T15, FGFR3 (Homo sapiens, UniProt P22607)", "T15 construct": "purchased Eurofins/DiscoverX KINOMEscan (scanEDGE panel)", "T15 sequence (P22607 23-806)": "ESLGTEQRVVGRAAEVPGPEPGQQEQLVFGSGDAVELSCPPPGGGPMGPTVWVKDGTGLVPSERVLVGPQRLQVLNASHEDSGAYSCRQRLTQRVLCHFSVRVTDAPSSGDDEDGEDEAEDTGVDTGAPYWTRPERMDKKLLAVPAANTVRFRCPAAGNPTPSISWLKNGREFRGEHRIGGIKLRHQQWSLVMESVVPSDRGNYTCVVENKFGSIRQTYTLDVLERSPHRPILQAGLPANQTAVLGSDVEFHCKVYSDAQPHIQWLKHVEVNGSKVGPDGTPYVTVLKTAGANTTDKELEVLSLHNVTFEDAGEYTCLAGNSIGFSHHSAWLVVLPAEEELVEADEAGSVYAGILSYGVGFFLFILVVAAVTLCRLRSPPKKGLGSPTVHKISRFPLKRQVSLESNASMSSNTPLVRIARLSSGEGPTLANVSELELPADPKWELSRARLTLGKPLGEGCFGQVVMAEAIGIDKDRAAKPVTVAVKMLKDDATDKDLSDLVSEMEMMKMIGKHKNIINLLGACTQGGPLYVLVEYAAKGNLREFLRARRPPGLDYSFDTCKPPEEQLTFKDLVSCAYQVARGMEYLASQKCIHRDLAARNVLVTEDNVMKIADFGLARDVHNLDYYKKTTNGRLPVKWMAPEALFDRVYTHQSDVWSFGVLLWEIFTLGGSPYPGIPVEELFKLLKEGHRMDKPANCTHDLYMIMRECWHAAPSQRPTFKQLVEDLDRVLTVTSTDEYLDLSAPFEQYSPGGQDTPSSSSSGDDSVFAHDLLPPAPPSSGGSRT", "assay": "KINOMEscan scanEDGE binding", "settings": "KinomeEDGE scan, compound at 1 μΜ"}, "[20]": {"biological_target": "T16, MKNK2 (Homo sapiens, UniProt Q9HBH9)", "T16 construct": "purchased Eurofins/DiscoverX KINOMEscan (scanEDGE panel)", "T16 sequence (Q9HBH9 whole entry)": "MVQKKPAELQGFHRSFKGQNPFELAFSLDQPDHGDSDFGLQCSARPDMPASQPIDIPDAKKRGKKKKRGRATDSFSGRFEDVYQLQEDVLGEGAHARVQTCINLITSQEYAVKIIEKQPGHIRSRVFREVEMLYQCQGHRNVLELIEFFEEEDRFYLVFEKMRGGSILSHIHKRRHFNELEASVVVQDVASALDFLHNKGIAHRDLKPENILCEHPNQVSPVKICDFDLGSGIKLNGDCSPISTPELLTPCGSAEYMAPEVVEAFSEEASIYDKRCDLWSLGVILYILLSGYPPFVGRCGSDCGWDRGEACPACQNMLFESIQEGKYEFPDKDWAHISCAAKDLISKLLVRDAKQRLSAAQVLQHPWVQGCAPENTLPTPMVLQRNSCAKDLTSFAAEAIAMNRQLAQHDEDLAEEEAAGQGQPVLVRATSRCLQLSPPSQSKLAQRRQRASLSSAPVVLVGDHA", "assay": "KINOMEscan scanEDGE binding", "settings": "KinomeEDGE scan, compound at 1 μΜ"}, "[21]": {"biological_target": "T17, PKAC-alpha (Homo sapiens, UniProt P17612)", "T17 construct": "purchased Eurofins/DiscoverX KINOMEscan (scanEDGE panel)", "assay": "KINOMEscan scanEDGE binding", "settings": "KinomeEDGE scan, compound at 1 μΜ"}, "[22]": {"settings": "standard of care dose for CML; cited from earlier work"}, "[23]": {"biological_target": "T7, FGFR1", "assay": "KINOMEscan scanEDGE binding", "set-up": "purchased Eurofins/DiscoverX KINOMEscan (scanEDGE panel)", "settings": "KinomeEDGE scan, compound at 1 μΜ"}}}
{"smiles": "Cc1ccc(C(=O)Nc2ccc(CNCCN3CCOCC3)c(C(F)(F)F)c2)cc1C#Cc1cnc2cccnn12", "note": "[PHI1]", "values": [{"measurement": "IC50", "setting": "[1]", "result": "323 ± 35", "unit": "nM"}, {"measurement": "IC50", "setting": "[2]", "result": "8.3 ± 1.5", "unit": "nM"}, {"measurement": "ΔTm (CETSA)", "setting": "[3]", "result": "+3.4 °C"}, {"measurement": "% Ctrl ABL1(T315I)-phosphorylated", "setting": "[4]", "result": 3.5, "unit": "% Ctrl"}, {"measurement": "% Ctrl ABL1-phosphorylated", "setting": "[5]", "result": 0.1, "unit": "% Ctrl"}, {"measurement": "% Ctrl ACVR1B", "setting": "[6]", "result": 0.4, "unit": "% Ctrl"}, {"measurement": "% Ctrl EPHA", "setting": "[7]", "result": 14, "unit": "% Ctrl"}, {"measurement": "% Ctrl ROCK2", "setting": "[8]", "result": 35, "unit": "% Ctrl"}, {"measurement": "IC50", "setting": "[9]; 100 μM ATP", "result": "624 ± 25", "unit": "nM"}, {"measurement": "reduction of inhibitory activity on FGFR compared to Ponatinib", "setting": "[9]; PHI1 versus Ponatinib", "result": 43, "unit": "fold"}, {"measurement": "reduction of inhibitory activity on FLT3 compared to Ponatinib", "setting": "[10]", "result": "tenfold"}, {"measurement": "IC50", "setting": "[11]", "result": "548 ± 21", "unit": "nM"}]}
{"smiles": "Cc1ccc(C(=O)Nc2ccc(CN3CCN(C)CC3)c(C(F)(F)F)c2)cc1C#Cc1cnc2cccnn12", "note": "[Ponatinib, 3-[2-(imidazo[1,2-b]pyridazin-3-yl)ethynyl]-4-methyl-N-{4-[(4-methylpiperazin-1-yl)methyl]-3-(trifluoromethyl)phenyl}benzamide]", "values": [{"measurement": "inhibition of CRAF kinase activity (in words)", "setting": "[12]", "result": "potently inhibited"}, {"measurement": "inhibition of colony formation in 3D culture (in words)", "setting": "[13]", "result": "increased efficacy to inhibit colony formation as compared to Vemurafenib"}, {"measurement": "% Ctrl AXL", "setting": "[14]", "result": 14, "unit": "% Ctrl"}, {"measurement": "% Ctrl CDK7", "setting": "[15]", "result": 6.2, "unit": "% Ctrl"}, {"measurement": "% Ctrl CDK9", "setting": "[16]", "result": 28, "unit": "% Ctrl"}, {"measurement": "% Ctrl EGFR", "setting": "[17]", "result": 15, "unit": "% Ctrl"}, {"measurement": "% Ctrl EGFR(L858R)", "setting": "[18]", "result": 19, "unit": "% Ctrl"}, {"measurement": "% Ctrl FGFR3", "setting": "[19]", "result": 0.9, "unit": "% Ctrl"}, {"measurement": "% Ctrl MKNK2", "setting": "[20]", "result": 0.6, "unit": "% Ctrl"}, {"measurement": "% Ctrl PKAC-alpha", "setting": "[21]", "result": 8.1, "unit": "% Ctrl"}, {"measurement": "elimination half-life", "setting": "[22]", "result": "> 24", "unit": "h"}, {"measurement": "maximum plasma levels", "setting": "[22]", "result": "~ 100 nM"}, {"measurement": "% Ctrl FGFR1", "setting": "[23]", "result": 0.15, "unit": "% Ctrl"}]}
